Patent EP0610943A1, “Pyridinium derivatives useful as PAF antagonists” (J. URIACH & CIA. S.A., priority 1993, dated 1994)

Key:
[1] = system: Platelet aggregation induced by PAF; assay: Inhibition of platelet aggregation induced by PAF (Born nephelometric technique, platelet-rich plasma); assay type: cell-based, male New Zealand rabbits; settings: rabbit platelet-rich plasma, platelet count 3x10⁵/mm³; PAF (C₁₈) 15 nM; read-out: IC₅₀
Procedure: Inhibition of platelet aggregation induced by PAF
Platelet-rich plasma (PRP) was prepared by centrifuging the blood at 250xg for 10 min at 4°C and then it was diluted with platelet-poor plasma (PPP) obtained by further centrifuging at 3000xg for 10 min. The platelet count was adjusted to 3x10⁵/mm³. […] The activities of the inhibitors were expressed as the IC₅₀ value, that is to say the concentration of the drug needed to inhibit platelet aggregation by 50%.

[2] = system: PAF-induced hypotension; assay: Inhibition of the hypotensive effect induced by PAF in normotensive rats; assay type: in vivo, Male Sprague Dawley rats; settings: i.v. through the femoral vein 3 min before PAF injection (0.5 mcg/kg, i.v.); anaesthetized rats
Procedure: Inhibition of the hypotensive effect induced by PAF in normotensive rats.
Male Sprague Dawley rats (b.w. 180-220 g) anaesthetized with sodium pentobarbital (50 mg/kg, i.p. 1mL/100 g) were used. In order to measure the arterial pressure, a polyethylene catheter was introduced into the carotid artery. The arterial pressure was recorded with the help of a transducer coupled to a R611 Beckman polygraph. The test compounds were administered through the femoral vein 3 min before PAF injection (0.5 mcg/kg, i.v.). Control animals received only the vehicle. […]

[3] = system: ear oedema induced by arachidonic acid; assay: Rodent ear oedema induced by arachidonic acid; assay type: in vivo, Swiss, male mice; settings: topical in acetone 30 min before irritant; 10% arachidonic acid, 2 mg/ear; read at 1 h; mouse ear
Procedure: (§1) Rodent ear oedema induced by application of several irritant agents
(§2) Groups of 8-10 Swiss, male mice, 6-8 weeks old, were used in the experiments. Animals had free access to food and water. Irritant dermatitis was elicited by painting both faces of the left ear of the mouse with 20 µL (10 µL each face) of the inflammatory agents. Concentrations (w/v) of the irritants were: 10% arachidonic acid and 0.01% TPA (12-O-tetradecanoylphorbol 13-acetate), both dissolved in acetone. Total applied doses were 2 and 0.002 mg/ear, respectively. Treatment was effected by application of a total of 20 µL of the test compound dissolved in acetone to both faces of the left ear of the mouse 30 min before the application of the irritant agent. Control animals received only the vehicle. At 1 h (arachidonic acid) and 6 h (TPA) after administration of the irritant, animals were killed by cervical dislocation. An 8 mm diameter punch biopsy was performed on each ear, the right (untreated) ear being the control for each animal. The swelling induced by the irritant was quantified as the percentage increase in the weight of the left ear biopsy over that of the right ear biopsy.

[4] = system: ear oedema induced by TPA (12-O-tetradecanoylphorbol 13-acetate); assay: Rodent ear oedema induced by TPA; assay type: in vivo, Swiss, male mice; settings: topical in acetone 30 min before irritant; 0.01% TPA, 0.002 mg/ear; read at 6 h; mouse ear
Procedure: as §1
as §2, with “This test was performed according to the method described by Young et al. (Pharmacological Methods in the Control of Inflammation., ed. Chang, J.Y. & Lewis, A.J. pp 215-231. New York: Alan R. Liss, 1989). Groups” for “Groups”, “biopsy. Percentage inhibition of oedema was calculated according to the following formula: [formula] Activity of the inhibitors was expressed as the ID₅₀ value, i.e. the amount of compound by weight of animal (dose) required to inhibit the increase in weight by 50%, with respect to control animals.” for “biopsy.”

Compound	IC50 [1] [nM]	ID₅₀ [2] [mg/kg]	ID₅₀ Arachidonic acid [3]	ID₅₀ TPA [4]
5-Bromo-3-[N-(2-ethoxycarbonylamino)ethyl-N-phenyl]carbamoyl-1-propylpyridinium chloride [Compound 2]	4.2	0.039	–	–
5-Bromo-3-[N-[2-(2-iodoethoxy)carbonylamino]ethyl-N-phenyl]carbamoyl-1-propylpyridinium chloride [Compound 4]	16	–	–	–
5-Bromo-3-[N-[2-(2-iodoethoxy)carbonylamino]ethyl-N-phenyl]carbamoyl₋1-propylpyridinium iodide [Compound 3]	10	–	0.3-1 mg/ear	0.76 mg/ear
5-Bromo-3-[N-[2-(4-fluorobenzyloxy)carbonylamino]ethyl-N-phenyl]carbamoyl-1-propylpyridinium iodide [Compound 9]	3.8	0.079	≈1 mg/ear	0.3-1 mg/ear
CCC[n+]1cc(Br)cc(C(=O)N(CCNC(=O)OCC)c2ccccc2)c1.[I-] [Compound 1, 5-Bromo-3-[N-(2₋ethoxycarbonylamino)ethyl-N-phenyl]carbamoyl-1-propylpyridinium iodide]	18	0.046	0.31 mg/ear	0.31 mg/ear
CCC[n+]1cc(Br)cc(C(=O)N(CCN2CCOC2=O)c2ccccc2)c1.[I-] [Compound 5, 5-Bromo-3-[N-[2-(2-oxo-1,3-oxazolidin-3-yl)ethyl-N-phenyl]carbamoyl]-1-propylpyridinium iodide]	36	0.16	≧1 mg/ear	0.68 mg/ear
CCC[n+]1cc(Br)cc(C(=O)N(CCOC(=O)NCCI)c2ccccc2)c1.[I-] [Compound 7]	2.1	<0.025	0.50 mg/ear	0.20 mg/ear
CCC[n+]1cc(Br)cc(C(=O)N(CCNC(=O)OCC(F)(F)C(F)(F)F)c2ccccc2)c1.[I-] [Compound 8, 5-Bromo-3-[N-[2-(2,2,3,3,3-pentafluoropropoxy)carbonylamino]ethyl-N-phenyl]carbamoyl-1-propylpyridinium iodide]	4.2	–	≈1 mg/ear	0.3-1 mg/ear
CCC[n+]1cc(Br)cc(C(=O)N(CCNC(=O)c2ccc(C(F)(F)F)cc2)c2ccccc2)c1.[I-] [Compound 10]	4.5	–	≈1 mg/ear	0.3-1 mg/ear
CCC[n+]1cc(Br)cc(C(=O)N(CCNC(=O)c2ccc(C(F)(F)F)cc2)c2ccccc2)c1.[Cl-] [Compound 11, 5-Bromo-3-[N-[2-[(4-trifluoromethyl)phenyl]carbonylaminolethyl-N-phenyl]carbamoyl-1-propylpyridinium chloride]	23	–	–	–
CCC[n+]1cc(Br)cc(C(=O)N(CCNC(=O)c2ccc(C(F)(F)F)cc2)c2ccccc2)c1.[Cl-] [Compound 11]	–	0.022	–	–
Cl.O=C(Cc1ccc(OCc2ccc3ccccc3n2)cc1)NCCN(C(=O)c1cncc(Br)c1)c1ccccc1 [Compound 13, 5-Bromo-3-[N-[2-[p-(2-quinolylmethoxy)phenyl]acetylamino]ethyl-N-phenyl]carbamoylpyridinium chloride]	52	0.0065	>0.3 mg/ear	>0.1 mg/ear
Cl.O=C(NCCN(C(=O)c1cncc(Br)c1)c1ccccc1)c1cccc(OCc2ccc3ccccc3n2)c1 [Compound 15, 5-Bromo-3-[N-[2-[3-(2-quinolylmethoxy)phenyl]carbonylamino]ethyl-N-phenyl]carbamoylpyridinium chloride]	–	–	–	≦0.1 mg/ear
Cl.O=C(NCCN(C(=O)c1cncc(Br)c1)c1ccccc1)c1ccc(OCc2ccc3ccccc3n2)cc1 [Compound 17, 5-Bromo-3-[N-[2-[p-(2-quinolylmethoxy)phenyl]carbonylamino]ethyl-N-phenyl]carbamoylpyridinium chloride]	–	–	–	<0.1 mg/ear
